According to ChEMBL document CHEMBL1155373, “Triterpene compounds isolated from Acer mandshuricum and their anti-inflammatory activity” (Bioorg Med Chem Lett, 2010):

What was measured:
RAW264.7 = assay: Antiinflammatory activity in mouse RAW264.7 cells assessed as inhibition of LPS-stimulated TNFalpha production at 100 nM pretreated 1 hr before LPS challenge measured after 24 hrs by sandwich ELISA relative to control; type: functional
HL-60 = assay: Growth inhibition of human HL60 cells by MTT assay; type: functional
SK-OV-3 = assay: Growth inhibition of human SKOV3 cells by MTT assay; type: functional
A549 = assay: Growth inhibition of human A549 cells by MTT assay; type: functional
HT-29 = assay: Growth inhibition of human HT-29 cells by MTT assay; type: functional
A2780 = assay: Cytotoxicity against human A2780 cells; type: functional, cell-based

GI50 (HL-60) [µM] | GI50 (SK-OV-3) [µM] | GI50 (A549) [µM] | GI50 (HT-29) [µM] | SMILES | inhibition at 0.1 µM (RAW264.7) [%] | IC50 (A2780) [µg/mL]
12.2 | 12.7 | 11.1 | 13.5 | C[C@H]1C(=O)CC[C@@H]2[C@]1(C)CC[C@H]1[C@@]2(C)CC[C@@]2(C)[C@@H]3CC(C)(C)CC[C@]3(C)CC[C@]12C [FRIEDELINE] | 23.5 | 
16.2 | 12.1 | 17.9 | 16.3 | CC(=O)O[C@H]1CC[C@@H]2C(=CC[C@H]3[C@@]2(C)CC[C@@]2(C)[C@@H]4CC(C)(C)CC[C@]4(C)CC[C@]32C)C1(C)C [GLUTINOL ACETATE] | 25.4 | 
16 | 12.6 | 11.6 | 14.1 | CC1(C)CC[C@]2(C)CC[C@]3(C)[C@H]4CC=C5[C@@H](CC[C@H](O)C5(C)C)[C@]4(C)CC[C@@]3(C)[C@@H]2C1 [GLUTINOL] | 16.9 | 
50.8 | 29.8 | 35.5 | 46.8 | CC[C@H](CC[C@@H](C)[C@H]1CC[C@H]2[C@@H]3CC=C4C[C@@H](O[C@@H]5O[C@H](CO)[C@@H](O)[C@H](O)[C@H]5O)CC[C@]4(C)[C@H]3CC[C@]12C)C(C)C [SITOGLUSIDE] | 29.3 | 
14.6 | 14.6 | 11.4 | 12.5 | CC(=O)O[C@H]1CC[C@]2(C)[C@H]3CC=C4[C@@H]5CC(C)(C)CC[C@]5(C)CC[C@@]4(C)[C@]3(C)CC[C@H]2C1(C)C [beta-AMYRIN ACETATE] | 38.4 | 12.5

SMILES | GI50 (HL-60) [µM] | GI50 (SK-OV-3) [µM] | GI50 (A549) [µM] | GI50 (HT-29) [µM] | inhibition at 0.1 µM (RAW264.7) [%] | IC50 (A2780) [µg/mL]
CC(=O)O[C@H]1CC[C@@]2(C)[C@@]3(OC[C@@H](OO3)[C@]3(C)[C@@]2(C)CC[C@@]2(C)[C@@H]4CC(C)(C)CC[C@]4(C)CC[C@]32C)C1(C)C [ACERANOL ACETATE] | 13.7 | 12.8 | 11.4 | 14.6 | 21 | 
O=C1c2c(O)ccc(O)c2C(=O)c2c(NCCNCCO)ccc(NCCNCCO)c21 [MITOXANTRONE] | 7.8 | 11 | 8.3 | 8.9 |  | 
